Experimental data published in patent US8080575B2, “Gamma-lactam compounds for promoting bone growth” (Osteogenex Inc., priority 2008, dated 2011).

What was measured:
C57BL/6 mice [1] = test: Serum osteocalcin (biochemical marker of bone formation) measured by EIA Elisa in mice treated daily i.p. for 30 days; format: in vivo; conditions: four month old male C57BL/6 mice, fraction
Procedure: (§1) Four month old male C57BL/6 mice were treated daily with saline vehicle or the sclerostin inhibitor of Formula Ib:
(§2) [drawing 9] at low, mid, or high doses (via i.p) for 30 days. Study endpoints included a biochemical marker of bone formation, osteocalcin measured by EIA Elisa, and measurement of trabecular bone volume by mico-CT analysis on the proximal tibia.

C57BL/6 mice [2] = test: Trabecular bone volume by micro-CT analysis on the proximal tibia in mice treated daily i.p. for 30 days; format: in vivo; conditions: four month old male C57BL/6 mice
Procedure: as §1, §2

O=C1CCCN1c1ccccc1O [Formula Ib]
increase in serum osteocalcin over baseline (C57BL/6 mice [1]; 0.5 mg/kg (C), also printed as 4%): 0.04 | increase in serum osteocalcin over baseline (C57BL/6 mice [1]; 2 mg/kg (B), also printed as 24%): 0.24 | increase in serum osteocalcin over baseline (C57BL/6 mice [1]; 10 mg/kg (A), also printed as 27%): 0.27 | percent change in tibia long bone volume increase versus saline controls (C57BL/6 mice [2]; 0.5 mg/kg (C)): 13% | percent change in tibia long bone volume increase versus saline controls (C57BL/6 mice [2]; 2 mg/kg (B)): 40% | percent change in tibia long bone volume increase versus saline controls (C57BL/6 mice [2]; 10 mg/kg (A)): 69%
